Test results as given in patent US20220143024A1, “METHODS OF USING IMIPRIDONES” (Board of Regents, The University of Texas System, priority 2019, published 2022).
Like-named read-outs stand apart in the source and are kept apart here.

Tests used:
[1] = test system: ONC201-resistant (ONC-R) Z138 cells carrying D190A mutant ClpP; assay: Sensitivity of ONC201-resistant Z138 cells; details: Annexin V assay; 72 hours
Experimental: (§3) After a 72-h period of incubation at 37° C., 10 μL of Alamar Blue was added to the culture medium and the mixture was incubated for an additional 2 h at 37° C. Cytotoxicity was measured using spectrophotometry of fluorescence at excitation 560 nm & emission 590 nm (SpectraMax M3, Molecular Devices, San Jose, Calif.). […] Annexin V and PI were stained after 72 h incubation. Annexin V- and PI-negative cells were counted as live cells.

[2] = target: T1, human ClpP (recombinant WT ClpP) (Homo sapiens, UniProt Q16740); assay: ClpP enzymatic assays with fluorogenic substrates (cell-free); format: biochemical; details: for EC50: without ClpX
T1 construct: SUMO fusion (pETSUMO2); made in house; host or cells: E. coli SG1146
Experimental: (§1) Hill coefficient was determined using Origin7, Pharmacology—Dose-response curve with log (compound concentration) as the independent variable.

ClpP = target: T2, ClpP (Homo sapiens, UniProt Q16740); assay: Gel-based α-casein degradation by ClpP; format: biochemical; details: without ClpX; 3 h; SDS-PAGE
T2 construct: SUMO fusion (pETSUMO2); made in house; host or cells: E. coli SG1146

recombinant D190A ClpP = target: T3, recombinant D190A ClpP (Homo sapiens, UniProt Q16740, D190A); assay: ClpP enzymatic assays, D190A ClpP; format: biochemical; details: peptide (AC-WLA-AMC) or protein (FITC-casein) substrates
T3 construct: SUMO fusion (pETSUMO2); made in house; host or cells: E. coli SG1146
Experimental: as §1

[3] = test system: ClpP interactors (SDHA, SDHB, NDUFA12) in OCI-AML3 cells; assay: Immunoblot of respiratory chain complex subunits, OCI-AML3; format: cell-based; details: 24 hours, dose dependent
Experimental: Cells were lysed at a density of 1×10^6/50 μL (for AML cells) or 1×10^6/100 μL (for HCT116 cells) in protein lysis buffer (0.25 M Tris-HCl, 2% sodium dodecylsulfate, 4% β-mercaptoethanol, 10% glycerol, 0.02% bromophenol blue). Protein lysates for Oxphos cocktail antibodies were incubated for 30 min at room temperature, otherwise, at 95° C. for 5 min for denaturing (antibodies used are listed below). Immunoblot analysis was performed as reported previously (Ishizawa et al., 2016). Briefly, an equal amount of protein lysate was loaded onto a 10-12% SDS-PAGE gel (Bio-Rad), and quantitated using the Odyssey imaging system (LI-COR Biotechnology, Lincoln, Nebr.). Antibodies used: total OXPHOS rodent WB antibody cocktail, anti-SDHA, anti-SDHB, anti-NDUFA12, anti-ClpP, anti-ATF4, anti-eIF2α, anti-phospho-eIF2α (S51), anti-ClpP, anti-CQCRC2, anti-CS, anti-NDUFB8, anti-β-actin, and anti-GAPDH.

[4] = test system: Z138 cells with WT ClpP overexpression; assay: Z138 xenograft, WT ClpP overexpression; format: in vivo, mice; details: WT ClpP group
Experimental: (§2) Mice. For all the animal studies in the present study, the study protocols were approved by the Institutional Animal Care and Use Committee (IACUC) at the Princess Margaret Cancer Centre and MD Anderson Cancer Center. Two million Z138 cells transfected with the wild-type or D190A mutant CLPP-over-expressing vector and labeled with luciferase were injected to individual NSG mice (n=7 per treatment group, all female). After confirming engraftment measured by in vivo bioluminescence imaging on d 9 post-transplantation, ONC212 (50 mg/kg/d) or vehicle (water) is administered by oral gavage every other d until the mice got moribund. Tumor burden measured by luminescence was followed weekly until day 31. Independently, two million Z138 cells transfected with tetracycline-inducible Y118A mutant ClpP were labeled with luciferase and injected to individual NSG mice (n=10 per treatment group, all male). After confirming engraftment measured by in vivo bioluminescence imaging on day 5 post-transplantation, the mice were treated with or without tetracycline (2 mg/mL) in drinking water until moribund. One million OCI-AML2 cells were injected to individual SCID mice (n=10 per treatment group, all male). […]. Engraftment experiments using patient-derived xenograft AML cells were performed as previously reported (Ishizawa et al., 2016). […] The mice in each group were monitored for survival.

[5] = test system: Z138 cells with D190A ClpP overexpression; assay: Z138 xenograft, D190A ClpP overexpression; format: in vivo, mice
Experimental: as §2

[6] = test system: patient-derived xenograft AML cells (leukemia-initiating cells); assay: Engraftment of ex vivo treated patient-derived xenograft AML cells; format: in vivo; details: cells treated ex vivo with 250 nM for 36 hours, injected into NSG mice; untreated 36 days; p<0.0001
Experimental: as §2

[7] = target: endogenous ClpP in OCI-AML2 cells (Homo sapiens, UniProt Q16740); details: 30 min, at concentrations associated with activation in enzymatic assays
[8] = test system: primary AML patient samples; assay: Annexin V assay in primary AML samples; details: 72 hours; incl. high-risk cytogenetics and molecular mutations
Experimental: Bulk AML cells from AML patients and peripheral blood stem cells from healthy G-CSF-treated stem cell donors were isolated by Ficoll density centrifugation and apheresis, respectively. Isolated cells were maintained in IMDM supplemented with 10% FBS, or Myelocult H5100 (Stemcell Technologies, Vancouver, BC), supplemented with 100 ng/mL SCF, 10 ng/mL FLT3-L, 20 ng/mL IL-7, 10 ng/mL IL-3, 20 ng/mL IL-6, 20 ng/mL G-CSF, 20 ng/mL GM-CSF. Cells were supplemented with 100 μg/ml penicillin, and 100 U/ml streptomycin, at 37° C. and 5% CO2 in humidified atmosphere.

[9] = test system: CLPP+/+ T-REx HEK293 cells; assay: Alamar blue viability, CLPP+/+ T-REx HEK293; details: CLPP+/+ (wild type) T-REx HEK293, 72 h
Experimental: as §3

[10] = test system: CLPP−/− T-REx HEK293 cells; assay: Alamar blue viability, CLPP−/− T-REx HEK293; details: 72 h
Experimental: as §3

[11] = test system: OCI-AML2, OCI-AML3, TEX, Z138, HCT-116, HeLa, OC316 and SUM159 cells; assay: Growth and viability of leukemia, lymphoma and solid tumor cell lines; details: tested cell lines; 72-hour exposure
Experimental: as §3

[12] = test system: Z138 cells with tetracycline-inducible mutant ClpP (Y118A); assay: Z138 xenograft with tetracycline-inducible Y118A mutant ClpP; format: in vivo; details: tetracycline 2 mg/mL in drinking water induces Y118A ClpP; untreated 40 days; p<0.0001; NSG mice
Experimental: as §2

OCI-AML2 cells = assay: Alamar blue viability assay, OCI-AML2; format: cell-based; details: 72-hour exposure, read-out: IC50, growth and viability
Experimental: […]. After a 72-h period of incubation at 37° C., 10 μL of Alamar Blue was added to the culture medium and the mixture was incubated for an additional 2 h at 37° C. Cytotoxicity was measured using spectrophotometry of fluorescence at excitation 560 nm & emission 590 nm (SpectraMax M3, Molecular Devices, San Jose, Calif.). For apoptosis analysis, annexin V and PI binding assays were performed to assess apoptosis as described previously (Ishizawa et al., 2016). […]. Annexin V and PI were stained after 72 h incubation. Annexin V- and PI-negative cells were counted as live cells.

[13] = substrate FITC-casein, read-out: EC50, ClpP cleavage of FITC-casein

T1 sequence (Q16740 57-277): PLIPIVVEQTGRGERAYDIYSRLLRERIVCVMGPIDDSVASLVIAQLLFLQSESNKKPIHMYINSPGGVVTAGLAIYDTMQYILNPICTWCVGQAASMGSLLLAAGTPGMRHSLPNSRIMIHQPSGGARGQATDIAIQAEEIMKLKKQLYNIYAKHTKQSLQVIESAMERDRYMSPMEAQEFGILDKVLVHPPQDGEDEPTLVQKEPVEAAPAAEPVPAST
T3 sequence (Q16740 57-277 D190A): as the sequence (Q16740 57-277) above, with D134A counted along it
Sequence of endogenous ClpP in OCI-AML2 cells (Q16740 57-277): as the sequence (Q16740 57-277) above
T2 sequence (Q16740 57-277): as above

COc1cccc2c1C(=O)c1c(O)c3c(c(O)c1C2=O)C[C@@](O)(C(=O)CO)C[C@@H]3O[C@H]1C[C@H](N)[C@H](O)[C@H](C)O1 [Adriamycin]
sensitivity of ONC-R Z138 cells [1]: retained similar sensitivity

O=C1C2=C(CCN(Cc3ccccc3)C2)N2CCN=C2N1Cc1ccc(C(F)(F)F)cc1 [ONC212]
Hill coefficient ([2]; FITC-casein data, positive cooperativity): 4.98±0.47
mode of activation ([2]; pre-incubation of ClpP with compound (0-60 min) did not increase activation): reversible (non-covalent)
EC50 ([2]; read-out: EC50, ClpP cleavage of FAPHMALVPC (Clptide), substrate FAPHMALVPC (Clptide), read-out: EC50, ClpP cleavage of […] (Clptide)): 3370 nM
EC50 ([2]; substrate AC-WLA-AMC, read-out: EC50, ClpP cleavage of AC-WLA-AMC): 180 nM
EC50 ([2]; substrate Ac-Phe-hArg-Leu-ACC, read-out: EC50, ClpP cleavage of Ac-Phe-hArg-Leu-ACC): 370 nM
EC50 [2, 13]: 460 nM
degradation of α-casein by ClpP (ClpP): activated ClpP and induced cleavage of α-casein
activation of proteolytic activity of D190A ClpP (recombinant D190A ClpP): could not activate
level of identified ClpP interactors [3]: reduced the level
tumor burden (luciferase, IVIS imaging) ([4]; 50 mg/kg every other day, oral gavage, NSG mice): significantly reduced
median survival ([4]; vehicle 49 days, p=0.008): 55 days
tumor burden (luciferase, IVIS imaging) ([5]; D190A ClpP group, 50 mg/kg every other day, oral gavage, NSG mice): no discernable anti-tumor activity
median survival ([5]; D190A mutant group, vehicle 53 days, p=0.40): 54 days
median survival [6]: 82 days
binding to endogenous ClpP in cells [7]: bound endogenous ClpP
apoptosis in primary AML patient samples [8]: induced apoptosis
sensitivity of ONC-R Z138 cells [1]: cross-resistant
growth and viability [9]: reduced the growth and viability
growth and viability [10]: resistant
IC50 values, growth and viability [11]: nanomolar range

CC[C@]1(O)C[C@H]2CN(CCc3c([nH]c4ccccc34)[C@@](C(=O)OC)(c3cc4c(cc3OC)N(C=O)[C@H]3[C@@](O)(C(=O)OC)[C@H](OC(C)=O)[C@]5(CC)C=CCN6CC[C@]43[C@@H]65)C2)C1 [Vincristine]
sensitivity of ONC-R Z138 cells [1]: retained similar sensitivity

CN(C)[C@@H]1C(O)=C(C(N)=O)C(=O)[C@@]2(O)C(O)=C3C(=O)c4c(O)cccc4[C@@](C)(O)[C@H]3C[C@@H]12 [tetracycline]
median survival [12]: 48 days

Acyldepsipeptide 1 [ADEP1]
potency as ClpP activator (comparison) ([2]; ADEP1 versus ONC201 and ONC212): less potent
cleavage of non-ClpP substrate MCA-Pro-Leu-Gly-Pro-D-Lys (DNP)-OH ([2]; after activating ClpP): not cleaved
EC50 [2, 13]: 21300 nM
IC50 (OCI-AML2 cells): 50000 nM
